Measurements reported in patent publication US6335039B1, “Pharmaceutical formulations comprising vegetal material selected from trichilia” (Laboratorio Catarinense S/A, priority 1997, dated 2002).

Legend:
[1] = system: corpus cavernosum of the rabbit (RbCC); type: cell-based; conditions: for relaxation of RbCC in presence of ATP-dependent potassium channel blocker: blocker 10 μM (Glybenclamide, FIG. 4)
[2] = system: HCC; assay: Superfusion of isolated corpus cavernosum (human, HCC); type: cell-based
[3] = system: nociception by formalin; assay: Formalin-induced licking; type: in vivo, mice; conditions: naloxone 10 minutes before; acute and inflammatory phases, formalin 2.5% w/v
Method: Male Swiss mice varying from 25 to 35 g, were housed at 22° C.±2° C. under a 12 h light/12 h dark circle and with access to water and purina. The animals were acclimatized to the laboratory for at least 1 hour before testing and were used once throughout the experiments.
Mice were lightly anaesthetized, with exception of those used to analyze the first phase of fromalin-induced pain. The surface of the animals paws was injected with 20 μL of 2.5% w/v formalin. Two groups of mice (mice treated with T. catigua and control mice) were simultaneously observed over a period from 0 to 30 min after the formalin injection. The total time spent by the animal licking the injected paw was timed with a chronometer and was considered as an indicative of pain. The first phase of the nociceptive response normally occurred […] the formalin injection and the second phase was from 15 to 30 min after such induction. These phases represent the neurogenic and inflammatory responses, respectively. In order to avoid pharmacokinetic influences, different groups of animals were used to analyze each phase of the experiment. Alternatively, animals were pretreated with naloxone 10 min prior to the administration of compositions comprising an extract of T. catigua.

CC1(C)Oc2ccc(C#N)cc2C(N2CCCC2=O)C1O (stereo not shown) [CMK, cromakalim]
relaxation of RbCC in presence of ATP-dependent potassium channel blocker [1]: inhibited

N=C(N)NCCC[C@H](N)C(=O)O [L-arg, L-arginine]
RbCC tonus on subsequent infusion after L-NAME ([1]; L-arg 300 μM after L-NAME, FIG. 2): reverted the enhanced tonus

COC(=O)[C@@H](N)CCCNC(=N)N[N+](=O)[O-] [L-NAME, N^m-nitro-L-arginine methyl ester]
basal tonus of RbCC ([1]; infusion of L-NAME 10 μM, FIG. 2): enhanced the basal tonus | HCC tonus ([2]; infusion of L-NAME): enhanced the HCC tonus

O=[N+]([O-])OCC(CO[N+](=O)[O-])O[N+](=O)[O-] [GTN, glyceryltrinitrate]
relaxation of RbCC in presence of tetrodotoxin [1]: did not present any effect | relaxation of RbCC during L-NAME infusion ([1]; L-NAME 10 μM, FIG. 2, 6 experiments): not affected | relaxation of RbCC in presence of atropine ([1]; atropine 1 μM, FIG. 3, 4 experiments): did not present any effect | relaxation of RbCC in presence of ATP-dependent potassium channel blocker [1]: without affecting | relaxation of HCC during L-NAME infusion ([2]; Ach 0.6 μM, GTN 1.3 μM, Cat 10-100 μL, 4 tissue strips from 2 donators): not significantly affected

CN1CC[C@]23c4c5ccc(O)c4O[C@H]2[C@@H](O)C=C[C@H]3[C@H]1C5 [morphine]
analgesic action after pretreatment with naloxone [3]: reverted
